Experimental data published in patent publication US20240293318A1, “CLEAVABLE LINKER-CONTAINING IONIZABLE LIPIDS AND LIPID CARRIERS FOR THERAPEUTIC COMPOSITIONS” (Flagship Pioneering Innovations VII, LLC, priority 2023, published 2024).

Key:
[1] = Encapsulation efficiency, fluorescence based Ribogreen assay; type: physicochemical; conditions: LNP, hEPO mRNA, Lipid:Cholesterol:DSPC:PEG-2k 50:38.5:10:1.5, N:P 6
Description: For lipid nanoparticle formulations containing an RNA, a QUANTIT™ RIBOGREEN® RNA assay (Invitrogen Corporation) is used to evaluate the encapsulation of RNA within the lipid nanoparticle formulation.
The samples are diluted to ˜10 ug/ml in TE buffer. In a 96 well plate, 50 ul of the diluted sample is added to 50 uL TE buffer in duplicates and 20 uL of diluted sample is added to 80 uL Triton X buffer (2% triton in TE buffer) in duplicates. The plate is incubated for 10 minutes at room temperature. Next, RIBOGREEN® is diluted 1:200 in TE BUFFER, and 100 uL is added to each sample well. The fluorescence intensity is measured using a fluorescence plate reader (e.g., Varioskanlux, ThermoScientific) at an excitation wavelength of about 480 nm and an emission wavelength of about 520 nm. The encapsulation efficiency can be determined by using the percentage ratio of non-encapsulated RNA (TE sample) over the total RNA (TX sample), then subtracting from 100 to find the percentage of encapsulated RNA amount.
(§1) LNPs were characterized by dynamic light scattering (DLS) measurement for measuring its hydrodynamic radius and polydispersity index (PDI). Encapsulation efficiency (EE %) and total RNA concentration were quantitated using a fluorescence based Ribogreen assay.

[2] = Zeta potential assay of LNPs; type: physicochemical; conditions: LNP, hEPO mRNA, Lipid:Cholesterol:DSPC:PEG-2k 50:38.5:10:1.5, N:P 6
Excerpt: (§2) Various lipid nanoparticle compositions comprising a nucleic acid payload are characterized by a variety of methods. For example, dynamic light scattering (DLS) is used to determine particle sizes (Wyatt Dynapro Platereader 111). In addition, instruments such as the Zetasizer Nano ZS (Malvern Instruments Ltd) are used to measure multiple physical properties of a lipid nanoparticle composition, such as particle size, polydispersity index (PDI), and zeta potential. Fluorescence-based assays are used to determine the efficiencies of nucleic acid encapsulation in the lipid nanoparticles. Fluorescence-based assays are used to determine the “apparent pKa” of the lipid nanoparticles. Both fluorescence assays are evaluated on a Varioskanlux plate reader (ThermoScientific).
A Zetasizer Nano ZS (Malvern Instruments Ltd) is used to determine the zeta potential of the nanoparticle compositions. Briefly, a 5 uL aliquot of an approximately 0.5 mg mRNA/mL sample is diluted into 800 uL 0.1×PBS. This sample is then transferred to a disposable conducting cuvette and the zeta potential is measured.

[3] = Apparent pKa of LNPs (TNS assay); type: physicochemical; conditions: LNP, hEPO mRNA, Lipid:Cholesterol:DSPC:PEG-2k 50:38.5:10:1.5, N:P 6
Excerpt: as §2
The apparent pKa of lipid nanoparticle composition is measured using a 6-(p-Toluidino)-2-naphthalenesulfonic acid (TNS) assay. Briefly, lipid nanoparticles (10 uL of approximately 0.5 mg mRNA/mL) and TNS probe (40 uL of 1 mM stock) are added to 750 uL of TNS buffer (25 mM citric acid, 20 mM sodium phosphate, 150 mM NaCl, and 20 mM ammonium acetate), at a pH ranging from 2 to 10. 20 uL of each sample are added to 80 uL of buffer at each pH in a 96-well plate. The plate is incubated for 10 minutes, and the fluorescence signal is measured by means of a spectrofluorometer (Varioskanlux, ThermoScientific) with excitation/emission settings of λex=321 nm, and λem=445 nm. The apparent pKa of the nanoparticle composition is determined by deriving the pH at which 50% of the pH 2 fluorescent signal is present. All datapoints are normalized to the fluorescent signal at pH 2.

[4] = LNP size and polydispersity index by dynamic light scattering (DLS); type: physicochemical; conditions: hEPO mRNA, Lipid:Cholesterol:DSPC:PEG-2k 50:38.5:10:1.5, N:P 6
Excerpt: as §2
After formulation and processing of the lipid nanoparticle compositions, the Z-average size of lipid nanoparticle composition are assayed by dynamic light scattering (DLS) (e.g., using a Wyatt Dynapro Platereader III or Malvern Zetasizer ZS). Briefly, an aliquot of 2 uL of the processed nanoparticle composition mixture (at an RNA concentration of approximately 0.5 mg/mL) is diluted into 50 uL phosphate buffered saline (0.1×PBS) and loaded into a 384 well plate. The sample is then analyzed to determine nanoparticle size.
as §1

[5] = test system: C57BL/6 female mice; assay: In vivo hEPO expression of hEPO mRNA LNPs, serum ELISA; conditions: LNP 50:38.5:10:1.5, N:P 6, 0.2 mg/kg hEPO mRNA, tail vein injection, blood serum 6 h post-administration
Description: In this example, messenger RNA molecules encoding hEPO proteins were formulated in lipid nanoparticles for delivery in vivo. The lipid nanoparticle (LNP) formulations comprised of a lipid composition of ionizable lipid: helper lipid: cholesterol. DMG-PEG2k at 50:10:38.5:1.5 mol %. The lipid mixture in ethanol was mixed with hEPO mRNA in RNA acidifying buffer (10 mM citrate, pH 4) at an ionizable-lipid-nitrogen-to-RNA-phosphate ratio (N:P) of 6 using a microfluidic device (Precision NanoSystems, Inc.) at a combined flow rate of 10 mL/min (7.5 mL/min for aqueous buffer, RNA and 2.5 mL/min for ethanol, lipid mix). The resulting particles were neutralized by buffer exchange into Dulbecco's phosphate buffer solution via PD-10 desalting column. The neutralized particles were concentrated using 100 kDa AMICON® Ultra centrifugal filters and sterile filtered using 0.2 um syringe filters. Samples were then characterized and diluted as needed (3 replicates).
The in vivo studies were performed in C57BL/6 female mice at 6 to 8 weeks weighing in at approximately 20 g. The LNPs formulated with different ionizable lipids at 0.2 mg/kg of hEPO mRNA were administered by tail vein injection and animals were euthanized at 6 h post-administration for blood serum sample collection. The hEPO levels from the samples were analyzed and cross-compared by enzyme-linked immunoassay (ELISA) according to manufacturer's protocol. The hEPO expression levels for each of the LNPs was compared to a control LNP comprising SM102 (DC Chemicals Cat. No. DC52025). (FIG. 1).

| Compound | EE [1] [%] | Zeta [2] [mV] | pKa [3] | PDI [4] | Size [4] [nm] | hEPO [5] [ng/mL] |
| --- | --- | --- | --- | --- | --- | --- |
| CCCCCCCCCCCOC(=O)CCN(CCO)CCCCCCCC(=O)OC(CCCCCCCC)CCCCCCCC [Lipid 4] | 97.5 | −9.3 | 5.1 | 0.103 | 56.2 | 0.00 |
| CCCCCCCCCCCOP(=O)(NCCCCCN(CCO)CCCCCCCC(=O)OC(CCCCCCCC)CCCCCCCC)OCC (centres unmarked) [Lipid 9] |  |  | 7.0 |  |  | 184.44 |
| CCCCCCCCCCOP(=O)(NCCCCCN(CCO)CCCCCCCC(=O)OC(CCCCCCCC)CCCCCCCC)OCC (centres unmarked) [Lipid 10] | 99.6 | 0.8 | 7.2 | 0.064 | 85.6 | 90.05 |
| CCCCCCCCCOP(=O)(NCCCCCN(CCO)CCCCCCCC(=O)OC(CCCCCCCC)CCCCCCCC)OCC (centres unmarked) [Lipid 11] | 99.7 | 2.6 | 7.3 | 0.08 | 94.4 | 63.81 |
| CCCCCCCCCCCNP(=O)(OCC)OCCCCCN(CCO)CCCCCCCOP(=O)(NCCCCCCCCC)OCCCCCCCCC (centres unmarked) [Lipid 12] | 99.3 | 3.5 | 8.3 | 0.316 | 87.6 | 0.00 |
| CCCCCCCCCNP(=O)(OCCCCCCCCC)OCCCCCCCN(CCO)CCCCCOP(=O)(NCCCCCCCCC)OCCCCCCCCC (centres unmarked) [Lipid 13] | 96.7 | 2.4 | 7.8 | 0.108 | 67.1 | 49.71 |
| CCCCCCCCCCCNP(=O)(OCC)OCCCCCN(CCO)CCCCCCCC(=O)OC(CCCCCCCC)CCCCCCCC (centres unmarked) [Lipid 14] | 98.3 | 0.9 | 6.9 | 0.248 | 101.5 | 33.98 |
| CCCCCCCCCCNP(=O)(OCC)OCCCCCN(CCO)CCCCCCCC(=O)OC(CCCCCCCC)CCCCCCCC (centres unmarked) [Lipid 15] | 94.8 | 0.2 | 7.0 | 0.165 | 83.1 | 123.69 |
| CCCCCCCCCNP(=O)(OCC)OCCCCCN(CCO)CCCCCCCC(=O)OC(CCCCCCCC)CCCCCCCC (centres unmarked) [Lipid 16] | 88.1 | −0.4 | 7.0 | 0.116 | 91.6 | 79.22 |
| CCCCCCCCC(CC)OC(=O)CCCCCCCN(CCCCCCCC(=O)OC(CCCCCCCC)CCCCCCCC)CCCNc1nnc(N)[nH]1 (centres unmarked) [Lipid 17] | 98.8 | −14.1 | 6.1 | 0.169 | 75.1 | 6.59 |
| CCCCCCCCC(CC)OC(=O)CCCCCCCN(CCCCCCCC(=O)OC(CCCCCCCC)CCCCCCCC)CCCn1nc(N)cc1N (centres unmarked) [Lipid 18] | 98.9 | −12.8 | 6.5 | 0.079 | 67.2 | 386.98 |
| CCCCCCCCC(CC)OC(=O)CCCCCCCN(CCCCCCCC(=O)OC(CCCCCCCC)CCCCCCCC)CCCNS(=O)(=O)NC (centres unmarked) [Lipid 19] | 96.9 | −27.6 | 6.3 | 0.183 | 60.9 | 1014.79 |
| CCCCCCCCC(CC)OC(=O)CCCCCCCN(CCCCCCCC(=O)OC(CCCCCCCC)CCCCCCCC)CCCNS(=O)(=O)N(C)C (centres unmarked) [Lipid 20] | 95.2 | −14.5 | 6.6 | 0.162 | 58.6 | 361.46 |
| CCCCCCCCC(CC)OC(=O)CCCCCCCN(CCCCCCCC(=O)OC(CCCCCCCC)CCCCCCCC)CCCn1nc(N)nc1N (centres unmarked) [Lipid 21] | 96.4 | −12.3 | 6.5 | 0.277 | 83.3 | 0.00 |

The next lines start with results.

| EE [1] [%] | Zeta [2] [mV] | pKa [3] | PDI [4] | Size [4] [nm] | Compound | hEPO [5] [ng/mL] |
| --- | --- | --- | --- | --- | --- | --- |
| 97.9 | −8.8 | 5.1 | 0.267 | 65.8 | CCCCCCCCCCCCCCOC(=O)CCN(CCO)CCCCCCCC(=O)OC(CCCCCCCC)CCCCCCCC [Lipid 1] | 0.00 |
| 97.9 | 0.1 | 5.1 | 0.399 | 68.8 | CCCCCCCCCCCCCOC(=O)CCN(CCO)CCCCCCCC(=O)OC(CCCCCCCC)CCCCCCCC [Lipid 2] | 0.00 |
| 97.6 | −9.2 | 5.1 | 0.48 | 62.8 | CCCCCCCCCCCCOC(=O)CCN(CCO)CCCCCCCC(=O)OC(CCCCCCCC)CCCCCCCC [Lipid 3] | 0.00 |
| 95.3 | −1.0 | 6.8 | 0.358 | 87.4 | CCCCCCCCCCCOC(=O)CCCCCN(CCO)CCCCCCCNP(=O)(OCCCCCCCCC)OCCCCCCCCC [Lipid 5] | 114.89 |
| 95.8 | −0.4 | 6.9 | 0.227 | 132.7 | CCCCCCCCCCCOC(=O)CCCCCN(CCO)CCCCCCCNP(=O)(OCCCCCCCC)OCCCCCCCC [Lipid 6] | 304.28 |
| 97.2 | −2.0 | 6.9 | 0.296 | 145.3 | CCCCCCCCCCCOC(=O)CCCCCN(CCO)CCCCCCCOP(=O)(NCCCCCCCCC)OCCCCCCCCC (centres unmarked) [Lipid 7] | 80.47 |
| 94.2 | 0.1 | 7.0 | 0.302 | 134.7 | CCCCCCCCCCCOC(=O)CCCCCN(CCO)CCCCCCCOP(=O)(NCCCCCCCC)OCCCCCCCC (centres unmarked) [Lipid 8] | 93.09 |
